Laboratory results: US4226610A, “Herbicidal compounds, preparation thereof and herbicides containing the same” (Meiji Selka Kaisha, Ltd., priority 1978, dated 1980)
Where a name gives a salt, the structure may show the parent alone.

Tests used:
yabugarashi = test: Experiment 1 foliar application to naturally growing weeds; type: in vivo, Cayratia japonica Houtt.; conditions: 4 months
Description: (§1) The detail of the assessment made in the following Experiments of the invention was as follows:
(§2) Four months after treatment, evaluation was made for inhibition of reproduction expressed in terms of symbols ranging from (-) to (+++) where (-) means no reproduction, namely complete suppression of reproduction, (±) remarkable suppression of reproduction; (+) considerable suppression of reproduction; (++) medium supprestion of reproduction; and (+++) no suppression of reproduction.
(§3) The compounds of the invention and other compounds for comparison listed in Table 3 were diluted to prescribed concentrations and sprayed to naturally growing weeds by foliar application in an amount of 150 liter per 10 are.
(§4) 0.1% of octylphenyl polyoxyethanol was added as a surfactant.
(§5) The killing index (0, no effect, 5, death) after 21 days, and the reproduction-inhibiting effect (-, no reproduction; +++, maximum reproduction) after 2 months (manna grass and cockspar grass) and 4 months (other weeds) were determined.

torch azalea = test: Experiment 3 foliar application to naturally growing shrubs; type: in vivo, Rhododendoron Kaempferi Planch.; conditions: after 3 months
Description: as §1, §2
(§6) The compounds of the invention and other compounds listed in Table 5. were diluted to prescribed concentrations and sprayed onto naturally growing shrubs by foliar application in an amount of 150 liter per 10 are.
(§7) 0.1% of octylphenyl polyoxyethanol was added as the surfactant. The killing index (0, no effect; 5, death) after 1 month and 3 months, and the reproduction-inhibiting effect (-, no reproduction; +++, maximum reproduction) after 3 months were determined.

lace shrub = test: as above; type: in vivo, Stephanandra incisa Zabel; conditions: for Reproduction-inhibiting: after 3 months; for Killing index: after 30 days
Description: as §1, §2, §6, §7

manna grass = test: Experiment 1 foliar application to naturally growing weeds; type: in vivo, Digitaria adsceudes Henr.; conditions: for Reproduction-inhibiting effect: 2 months
Description: as §1, §2, §3, §4, §5

warunasubi = test: as above; type: in vivo, Solanum carolinensis L.; conditions: 4 months
Description: as §1, §2, §3, §4, §5

eulalia = test: Experiment 2 foliar application in Japanese cypress afforested land; type: in vivo, Miscanthus sinensis Andress.; parameters: key: 0 = no effect, 5 = death; conditions: 0.125%
Method: as §1
(§8) The compounds of the invention and other compounds listed in Table 4. were diluted to prescribed concentrations and sprayed to shrubs by foliar application in a Japanese cypress afforested land in an amount of 150 liter per 10 are.
(§9) After 30 days and 3 months, the killing index (0, no effect; 5, death) was determined.
(§10) The heights of plants were 50-70 cm. for Japanese cypress, about 50 cm. for chestnut, 50-90 cm. for miyakozasa, about 100 cm. for eulalia and 70-100 cm. for kumaichigo, respectively.

Japanese bush cranberry = test: Experiment 3 foliar application to naturally growing shrubs; type: in vivo, Viburnum dilatatum Thunb.; conditions: for Reproduction-inhibiting: after 3 months
Description: as §1, §2, §6, §7

white clover = test: Experiment 1 foliar application to naturally growing weeds; type: in vivo, Trifolium repens L.; conditions: for Reproduction-inhibiting effect: 4 months
Description: as §1, §2, §3, §4, §5

kumaichigo = test: Experiment 2 foliar application in Japanese cypress afforested land; type: in vivo, Rubus crataegifolius Bunge; conditions: 0.125%, after 30 days
Method: as §1, §8, §9, §10

yamazakura = test: Experiment 3 foliar application to naturally growing shrubs; type: in vivo, Prunus donarium Sieb. var. spontanae Makino; conditions: after 3 months
Description: as §1, §2, §6, §7

purple nutsedge = test: Experiment 1 foliar application to naturally growing weeds; type: in vivo, Cyperus rotundus L.; conditions: 4 months
Description: as §1, §2, §3, §4, §5

kiichigo = test: Experiment 3 foliar application to naturally growing shrubs; type: in vivo, Rubus palmatsu Thunb. forma coptophyllus Makino
Description: as §1, §2, §6, §7

Japanese prickly ash = test: as above; type: in vivo, Xanthoxylum piperitum DC.; conditions: after 3 months
Description: as §1, §2, §6, §7

water hyacinth = test: Experiment 5 foliar application to water hyacinths; type: in vivo, Eichhornia crassipes Solms; conditions: 3 months
Description: as §1, §2
Water was placed in 20 cm.×30 cm. plastic vessels and a liquid fertilizer was added thereto. Two water hyacinths were floated in each vessel.
0.1 or 0.2% aqueous solutions of each of the compounds of the invention listed in Table 7 were sprayed by foliar application in an amount of 100 liter per 10 are. As a surfactant, 0.1% of octylphenyl polyoxyethanol was added.
The killing index (0, no effect; 5, death) after 21 days and 3 months, and the reproduction-inhibiting effect (-, no reproduction; +++, maximum reproduction) after 3 months were determined.

azumanezasa = test: Experiment 1 foliar application to naturally growing weeds; type: in vivo, Pleioblastus Chino Makino; conditions: for Reproduction-inhibiting effect: 4 months; for Killing index of Upperground parts: 21 days
Description: as §1, §2, §3, §4, §5

hedge bindweed = test: as above; type: in vivo, Calystegis hederacea Wall.; conditions: 4 months
Description: as §1, §2, §3, §4, §5

oak = test: Experiment 3 foliar application to naturally growing shrubs; type: in vivo, Quercus serrata Thunb; conditions: after 3 months
Description: as §1, §2, §6, §7

cockspar grass = test: Experiment 1 foliar application to naturally growing weeds; type: in vivo, Echinochloa Crusgalli P. Beauv.; conditions: for Reproduction-inhibiting effect: 2 months
Description: as §1, §2, §3, §4, §5

chigaya = test: as above; type: in vivo, Imperata cylindrica Beauv.; conditions: 4 months
Description: as §1, §2, §3, §4, §5

[1] = 0.05%, after 3 months, monosodium salt

## CP(=O)(O)CC[C@H](N)C(=O)O [L-2-Amino-4-methylphosphinobutanoic acid monosodium salt]
yabugarashi; 0.05%, monosodium salt
  Reproduction-inhibiting effect: ++
yabugarashi; 0.1%, monosodium salt
  Reproduction-inhibiting effect: +
yabugarashi; 0.2%, monosodium salt
  Reproduction-inhibiting effect: ±
Torch azalea; 0.05%, monosodium salt
  Reproduction-inhibiting: +++
Torch azalea; 0.1%
  Reproduction-inhibiting: -
Torch azalea; 0.2%
  Reproduction-inhibiting: -
Lace shrub; 0.05%, monosodium salt
  Reproduction-inhibiting: ++
  Killing index: 3.5
Lace shrub; 0.1%
  Reproduction-inhibiting: -
Lace shrub; 0.2%
  Reproduction-inhibiting: -
Manna grass; 0.05%, monosodium salt
  Reproduction-inhibiting effect: ++
Manna grass; 0.1%, monosodium salt
  Reproduction-inhibiting effect: ±
Manna grass; 0.1%, 21 days, monosodium salt
  Killing index of Upperground parts: 4.5
Manna grass; 0.2%
  Reproduction-inhibiting effect: -
warunasubi; 0.05%, monosodium salt
  Reproduction-inhibiting effect: +++
warunasubi; 0.1%, monosodium salt
  Reproduction-inhibiting effect: +
warunasubi; 0.2%, monosodium salt
  Reproduction-inhibiting effect: ±
eulalia; after 3 months, monosodium salt
  Killing index: 4.5
eulalia; after 30 days, monosodium salt
  Killing index: 3.5
Japanese bush cranberry; 0.05%, monosodium salt
  Reproduction-inhibiting: +++
Japanese bush cranberry; 0.1%, monosodium salt
  Reproduction-inhibiting: ++
Japanese bush cranberry; 0.2%
  Reproduction-inhibiting: -
White clover; 0.05%, monosodium salt
  Reproduction-inhibiting effect: +++
White clover; 0.1%, monosodium salt
  Reproduction-inhibiting effect: +
White clover; 0.1%, 21 days, monosodium salt
  Killing index of Upperground parts: 4.5
White clover; 0.2%
  Reproduction-inhibiting effect: -
kumaichigo; monosodium salt
  Killing index: 4.5
yamazakura; 0.05%, monosodium salt
  Killing index: 1.5
  Reproduction-inhibiting: ++
yamazakura; 0.1%
  Reproduction-inhibiting: -
yamazakura; 0.2%
  Reproduction-inhibiting: -
Purple nutsedge; 0.05%, monosodium salt
  Reproduction-inhibiting effect: +++
Purple nutsedge; 0.1%, monosodium salt
  Reproduction-inhibiting effect: +
Purple nutsedge; 0.2%, monosodium salt
  Reproduction-inhibiting effect: ±
kiichigo; [1]
  Killing index: 1.5
  Reproduction-inhibiting: ++
kiichigo; 0.05%, after 30 days, monosodium salt
  Killing index: 3.5
kiichigo; 0.1%, after 3 months
  Reproduction-inhibiting: -
kiichigo; 0.2%, after 3 months
  Reproduction-inhibiting: -
Japanese prickly ash; 0.05%, monosodium salt
  Reproduction-inhibiting: +++
Japanese prickly ash; 0.1%, monosodium salt
  Reproduction-inhibiting: +
Japanese prickly ash; 0.2%
  Reproduction-inhibiting: -
Water hyacinth; 0.1%, listed as L-AMPB monosodium salt, monosodium salt
  Reproduction-inhibiting effect: ±
Water hyacinth; 0.2%
  Reproduction-inhibiting effect: -
azumanezasa; 0.05%, monosodium salt
  Reproduction-inhibiting effect: ++
  Killing index of Upperground parts: 2.5
azumanezasa; 0.1%
  Reproduction-inhibiting effect: -
azumanezasa; 0.1%, monosodium salt
  Killing index of Upperground parts: 4.5
azumanezasa; 0.2%
  Reproduction-inhibiting effect: -
Hedge bindweed; 0.05%, monosodium salt
  Reproduction-inhibiting effect: +++
Hedge bindweed; 0.1%, monosodium salt
  Reproduction-inhibiting effect: ++
Hedge bindweed; 0.2%, monosodium salt
  Reproduction-inhibiting effect: +
oak; 0.05%, monosodium salt
  Reproduction-inhibiting: ++
oak; 0.1%
  Reproduction-inhibiting: -
oak; 0.2%
  Reproduction-inhibiting: -
Cockspar grass; 0.05%, monosodium salt
  Reproduction-inhibiting effect: ++
Cockspar grass; 0.1%, monosodium salt
  Reproduction-inhibiting effect: ±
Cockspar grass; 0.1%, 21 days, monosodium salt
  Killing index of Upperground parts: 4.5
Cockspar grass; 0.2%
  Reproduction-inhibiting effect: -
chigaya; 0.05%, monosodium salt
  Reproduction-inhibiting effect: ++
chigaya; 0.1%
  Reproduction-inhibiting effect: -
chigaya; 0.2%
  Reproduction-inhibiting effect: -

## CP(=O)(O)CC[C@H](N)C(=O)O [L-2-Amino-4-methylphosphinobutanoic acid monodiethanolammoni] [L-2-Amino-4-methylphosphinobutanoic acid monodiethanolammonium salt]
yabugarashi; 0.05%
  Reproduction-inhibiting effect: ++
yabugarashi; 0.1%
  Reproduction-inhibiting effect: +
yabugarashi; 0.2%
  Reproduction-inhibiting effect: ±
Torch azalea; 0.05%
  Reproduction-inhibiting: +++
Torch azalea; 0.1%
  Reproduction-inhibiting: -
Torch azalea; 0.2%
  Reproduction-inhibiting: -
Lace shrub; 0.05%
  Reproduction-inhibiting: ++
  Killing index: 3.5
Lace shrub; 0.1%
  Reproduction-inhibiting: -
Lace shrub; 0.2%
  Reproduction-inhibiting: -
Manna grass; 0.05%
  Reproduction-inhibiting effect: ++
Manna grass; 0.1%
  Reproduction-inhibiting effect: -
Manna grass; 0.2%
  Reproduction-inhibiting effect: -
warunasubi; 0.05%
  Reproduction-inhibiting effect: +++
warunasubi; 0.1%
  Reproduction-inhibiting effect: +
warunasubi; 0.2%
  Reproduction-inhibiting effect: ±
eulalia; after 30 days
  Killing index: 3.5
Japanese bush cranberry; 0.05%
  Reproduction-inhibiting: +++
Japanese bush cranberry; 0.1%
  Reproduction-inhibiting: ++
Japanese bush cranberry; 0.1%, after 30 days
  Killing index: 4.5
Japanese bush cranberry; 0.2%
  Reproduction-inhibiting: -
White clover; 0.05%
  Reproduction-inhibiting effect: +++
White clover; 0.1%
  Reproduction-inhibiting effect: -
White clover; 0.2%
  Reproduction-inhibiting effect: -
kumaichigo
  Killing index: 4.5
yamazakura; 0.05%
  Reproduction-inhibiting: ++
yamazakura; 0.1%
  Reproduction-inhibiting: -
yamazakura; 0.2%
  Reproduction-inhibiting: -
Purple nutsedge; 0.05%
  Reproduction-inhibiting effect: +++
Purple nutsedge; 0.1%
  Reproduction-inhibiting effect: +
Purple nutsedge; 0.2%
  Reproduction-inhibiting effect: ±
kiichigo; 0.05%, after 3 months
  Reproduction-inhibiting: ++
kiichigo; 0.05%, after 30 days
  Killing index: 3.5
kiichigo; 0.1%, after 3 months
  Reproduction-inhibiting: -
kiichigo; 0.2%, after 3 months
  Reproduction-inhibiting: -
Japanese prickly ash; 0.05%
  Reproduction-inhibiting: +++
Japanese prickly ash; 0.1%
  Killing index: 4.5
  Reproduction-inhibiting: ±
Japanese prickly ash; 0.2%
  Reproduction-inhibiting: -
azumanezasa; 0.05%
  Reproduction-inhibiting effect: ++
azumanezasa; 0.1%
  Reproduction-inhibiting effect: -
azumanezasa; 0.2%
  Reproduction-inhibiting effect: -
Hedge bindweed; 0.05%
  Reproduction-inhibiting effect: +++
Hedge bindweed; 0.1%
  Reproduction-inhibiting effect: ++
Hedge bindweed; 0.2%
  Reproduction-inhibiting effect: +
oak; 0.05%
  Reproduction-inhibiting: ++
oak; 0.1%
  Reproduction-inhibiting: -
oak; 0.2%
  Reproduction-inhibiting: -
Cockspar grass; 0.05%
  Reproduction-inhibiting effect: ++
Cockspar grass; 0.1%
  Reproduction-inhibiting effect: -
Cockspar grass; 0.2%
  Reproduction-inhibiting effect: -
chigaya; 0.05%
  Reproduction-inhibiting effect: ++
chigaya; 0.1%
  Reproduction-inhibiting effect: -
chigaya; 0.2%
  Reproduction-inhibiting effect: -
